What was measured:
Recombinant IKKβ = biological target: T1, Recombinant IKKβ (Homo sapiens, UniProt O14920); assay: DELFIA IKKβ kinase assay (apparent Ki, Cheng-Prusoff); type: biochemical; settings: non-italicised figure: DELFIA assay
T1 construct: purchased Millipore, Dundee, UK
T1 sequence (O14920 1-756): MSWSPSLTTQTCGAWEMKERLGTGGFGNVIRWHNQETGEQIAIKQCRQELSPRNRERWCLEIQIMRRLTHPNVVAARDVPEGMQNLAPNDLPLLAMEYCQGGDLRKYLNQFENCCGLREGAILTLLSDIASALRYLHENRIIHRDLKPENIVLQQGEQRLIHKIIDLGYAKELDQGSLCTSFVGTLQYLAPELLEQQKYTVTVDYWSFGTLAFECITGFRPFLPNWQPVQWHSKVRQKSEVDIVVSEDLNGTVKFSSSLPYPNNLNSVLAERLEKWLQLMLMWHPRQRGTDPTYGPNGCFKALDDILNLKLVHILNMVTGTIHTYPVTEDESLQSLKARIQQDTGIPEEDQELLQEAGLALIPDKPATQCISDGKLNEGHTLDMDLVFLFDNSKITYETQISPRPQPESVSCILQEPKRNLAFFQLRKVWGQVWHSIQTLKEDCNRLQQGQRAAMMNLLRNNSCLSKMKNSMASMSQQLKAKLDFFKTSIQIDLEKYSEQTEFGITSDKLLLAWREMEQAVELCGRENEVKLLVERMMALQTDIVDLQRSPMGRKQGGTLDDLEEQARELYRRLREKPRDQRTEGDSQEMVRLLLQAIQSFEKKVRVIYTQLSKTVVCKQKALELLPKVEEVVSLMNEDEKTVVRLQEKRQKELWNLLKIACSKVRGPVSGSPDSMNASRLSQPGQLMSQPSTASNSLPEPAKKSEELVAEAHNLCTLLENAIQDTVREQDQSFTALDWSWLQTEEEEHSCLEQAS
Procedure, shortened: (§1)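 Recombinant IKKα or IKKβ (37 nM) with 0.375 μM biotinylated IκB-α (Ser32) peptide and 40 μM ATP in 40 mM Tris-HCl pH 7.5, 20 mM MgCl2, 60 min at 30° C. Phospho-substrate captured on streptavidin and detected by anti-phospho-IκB-α plus europium anti-mouse IgG time-resolved fluorescence; apparent Ki via Cheng-Prusoff.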

Recombinant IKKα = biological target: T2, Recombinant IKKα (Homo sapiens, UniProt O15111); assay: DELFIA IKKα kinase assay (apparent Ki, Cheng-Prusoff); type: biochemical; settings: non-italicised figure: DELFIA assay
T2 construct: purchased Millipore, Dundee, UK
T2 sequence (O15111 1-745): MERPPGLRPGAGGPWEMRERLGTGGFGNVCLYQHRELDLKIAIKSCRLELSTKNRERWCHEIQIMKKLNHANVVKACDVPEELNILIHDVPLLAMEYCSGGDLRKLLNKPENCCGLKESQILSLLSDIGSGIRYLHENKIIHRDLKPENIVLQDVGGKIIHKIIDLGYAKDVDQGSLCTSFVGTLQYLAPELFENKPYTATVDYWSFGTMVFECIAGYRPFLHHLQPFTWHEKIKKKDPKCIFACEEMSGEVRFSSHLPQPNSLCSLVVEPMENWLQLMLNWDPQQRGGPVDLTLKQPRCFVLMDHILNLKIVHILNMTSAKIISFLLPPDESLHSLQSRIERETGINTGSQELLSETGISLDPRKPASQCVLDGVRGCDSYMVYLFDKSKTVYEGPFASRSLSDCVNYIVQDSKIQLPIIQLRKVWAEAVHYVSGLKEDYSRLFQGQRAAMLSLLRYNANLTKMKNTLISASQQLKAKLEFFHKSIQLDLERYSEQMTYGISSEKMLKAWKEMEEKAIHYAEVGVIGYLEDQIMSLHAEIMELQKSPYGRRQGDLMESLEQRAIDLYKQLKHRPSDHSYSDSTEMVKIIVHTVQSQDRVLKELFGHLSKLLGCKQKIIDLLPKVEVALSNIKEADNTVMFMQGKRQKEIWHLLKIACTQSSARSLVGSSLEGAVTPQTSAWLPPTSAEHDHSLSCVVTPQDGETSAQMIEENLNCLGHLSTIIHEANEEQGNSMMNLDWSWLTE
Procedure, shortened: as §1

Row | Structure (SMILES) | Ki (Recombinant IKKβ) | Ki (Recombinant IKKα)
1 | Nc1cc(-c2cc(-c3cccnc3)c3[nH]nc(N)c3c2)ccn1 [Example 127] | 1680 nM | 114 nM
2 | Nc1cc(-c2cc(-c3ccncc3)c3[nH]nc(N)c3c2)ccn1 [Example 128, 5-(2-Aminopyridin-4-yl)-7-(pyridin-4-yl)-1H-indazol-3-amine] | 1300 nM | 35 nM
3 | Nc1cc(-c2cc(-c3ccsc3)c3[nH]nc(N)c3c2)ccn1 [Example 130, 5-(2-Aminopyridin-4-yl)-7-(thiophen-3-yl)-1H-indazol-3-amine] | 612 nM | 43 nM
4 | Nc1cc(-c2cc(-c3cccs3)c3[nH]nc(N)c3c2)ccn1 [Example 131, 5-(2-Aminopyridin-4-yl)-7-(thiophen-2-yl)-1H-indazol-3-amine] | 224 nM | 21 nM
5 | Nc1cc(-c2cc(-c3cncs3)c3[nH]nc(N)c3c2)ccn1 [Example 132, 5-(2-Aminopyridin-4-yl)-7-(thiazol-5yl)-1H-indazol-3-amine] | 316 nM | 26 nM
6 | Nc1cc(-c2cc(-c3ccn[nH]3)c3[nH]nc(N)c3c2)ccn1 [Example 133, 5-(2-Aminopyridin-4-yl)-7-(1H-pyrazol-5-yl)-1H-indazol-3-amine] | 412 nM | 46 nM
7 | CC(C)C#Cc1cc(-c2ccnc(N)c2)cc2c(N)n[nH]c12 [Example 134, 5-(2-Aminopyridin-4-yl)-7-(3-methylbut-1-yn-1-yl)-1H-indazol-3-amine] | 300 nM | 3 nM
8 | Nc1cc(-c2cc(C#Cc3ccccc3)c3[nH]nc(N)c3c2)ccn1 [Example 138, 5-(2-Aminopyridin-4-yl)-7-(phenylethynyl)-1H-indazol-3-amine] | 5030 nM | 81 nM
9 | Nc1cc(-c2cc(C#CCCO)c3[nH]nc(N)c3c2)ccn1 [Example 139, 4-(3-Amino-5-(2-aminopyridin-4-yl)-1H-indazol-7-yl)but-3-yn-1-ol] | 4610 nM | 186 nM
10 | CC1(C#Cc2cc(-c3ccnc(N)c3)cc3c(N)n[nH]c23)COC1 [Example 141, 5-(2-Aminopyridin-4-yl)-7-((3-methyloxetan-3-yl)ethynyl)-1H-indazol-3-amine] | 380 nM | 14 nM
11 | Nc1cc(-c2cc(C#CC3CCOCC3)c3[nH]nc(N)c3c2)ccn1 [Example 142, 5-(2-Aminopyridin-4-yl)-7-((tetrahydro-2H-pyran-4-yl)ethynyl)-1H-indazol-3-amine] | 700 nM | 20 nM
12 | CC(C)(C)CCc1cc(-c2ccnc(N)c2)cc2c(N)n[nH]c12 [Example 144, 5-(2-Aminopyridin-4-yl)-7-(3,3-dimethylbutyl)-1H-indazol-3-amine] | 318 nM | 15 nM
13 | CC(C)(C)C#Cc1cc(-c2cc(N)ncc2F)cc2c(N)n[nH]c12 [Example 148, 5-(2-Amino-5-fluoropyridin-4-yl)-7-(3,3-dimethylbut-1-yn-1-yl)-1H-indazol-3-amine] | 2330 nM | 23 nM
14 | CC(C)(C)C#Cc1cc(-c2ccnc(N)c2F)cc2c(N)n[nH]c12 [Example 149, 5-(2-Amino-3-fluoropyridin-4-yl)-7-(3,3-dimethylbut-1-yn-1-yl)-1H-indazol-3-amine] | 220 nM | 8 nM
15 | CC(C)(C)C#Cc1cc(-c2ccnc(NC3CC3)c2)cc2c(N)n[nH]c12 [Example 153, 5-(2-(Cyclopropylamino)pyridine-4-yl)-7-(3,3-dimethylbut-1-yn-1-yl)-1H-indazol-3-amine] | 100 nM | 4 nM
16 | CC(C)(C)C#Cc1cc(-c2ccnc(NC3CCC3)c2)cc2c(N)n[nH]c12 [Example 154, 5-(2-(Cyclobutylamino)pyridin-4-yl)-7-(3,3-dimethylbut-1-yn-1-yl)-1H-indazol-3-amine] | 1690 nM | 120 nM
17 | CC(C)(C)C#Cc1cc(-c2ccnc(NC3COC3)c2)cc2c(N)n[nH]c12 [Example 155, 7-(3,3-Dimethylbut-1-yn-1-yl)-5-(2-(oxetan-3-ylamino)pyridin-4-yl)-1H-indazol-3-amine] | 784 nM | 15 nM
18 | CC(C)(C)C#Cc1cc(-c2ccnc(NCC3CC3)c2)cc2c(N)n[nH]c12 [Example 157, 5-(2-((Cyclopropylmethyl)amino)pyridin-4-yl)-7-(3,3-dimethylbut-1-yn-1-yl)-1H-indazol-3-amine] | 2800 nM | 141 nM
19 | CC(C)(C)C#Cc1cc(-c2ccnc(NCCC#N)c2)cc2c(N)n[nH]c12 [Example 159, 3-((4-(3-Amino-7-(3,3-dimethylbut-1-yn-1-yl)-1H-indazol-5-yl)pyridin-2-yl)amino)propanenitrile] | 1960 nM | 22 nM
20 | CC(C)(C)C#Cc1cc(-c2ccnc(NCCO)c2)cc2c(N)n[nH]c12 [Example 160, 2-((4-(3-Amino-7-(3,3-dimethylbut-1-yn-1-yl)-1H-indazol-5-yl)pyridin-2-yl)amino)ethan-1-ol] | 1340 nM | 8 nM
21 | CC(C)(C)C#Cc1cc(-c2ccnc(NCCN)c2)cc2c(N)n[nH]c12 [Example 161, N^1-(4-(3-Amino-7-(3,3-dimethylbut-1-yn-1-yl)-1H-indazol-5-yl)pyridin-2-yl)ethane-1,2-diamine] | 7610 nM | 128 nM
22 | COCCNc1cc(-c2cc(C#CC(C)(C)C)c3[nH]nc(N)c3c2)ccn1 [Example 162, 7-(3,3-dimethylbut-1-yn-1-yl)-5-(2-((2-methoxyethyl)amino)pyridin-4-yl)-1H-indazol-3-amine] | 1110 nM | 35 nM
23 | COCCCNc1cc(-c2cc(C#CC(C)(C)C)c3[nH]nc(N)c3c2)ccn1 [Example 163, 7-(3,3-Dimethylbut-1-yn-1-yl)-5-(2-((3-methoxypropyl)amino)pyridine-4-yl)-1H-indazol-3-amine] | > 30000 nM | > 3000 nM
24 | CC(=O)Nc1cc(-c2cc(C#CC(C)(C)C)c3[nH]nc(N)c3c2)ccn1 [Example 164, N-(4-(3-Amino-7-(3,3-dimethylbut-1-yn-1-yl)-1H-indazol-5-yl)pyridin-2-yl)acetamide] | 350 nM | 15 nM
25 | CCC(=O)Nc1cc(-c2cc(C#CC(C)(C)C)c3[nH]nc(N)c3c2)ccn1 [Example 165, N-(4-(3-Amino-7-(3,3-dimethylbut-1-yn-1-yl)-1H-indazol-5-yl)pyridin-2-yl)propionamide] | 780 nM | 7 nM
26 | CC(C)(C)C#Cc1cc(-c2ccnc(NC(=O)C3CC3)c2)cc2c(N)n[nH]c12 [Example 167, N-(4-(3-Amino-7-(3,3-dimethylbut-1-yn-1-yl)-1H-indazol-5-yl)pyridin-2-yl)cyclopropane carboxamide] | 1110 nM | 15 nM
27 | CC(C)C(=O)Nc1cc(-c2cc(C#CC(C)(C)C)c3[nH]nc(N)c3c2)ccn1 [Example 168, N-(4-(3-Amino-7-(3,3-dimethylbut-1-yn-1-yl)-1H-indazol-5-yl)pyridin-2-yl)isobutyramide] | 2580 nM | 273 nM
28 | CC(C)(C)C#Cc1cc(-c2ccnc(NC(=O)CC3CC3)c2)cc2c(N)n[nH]c12 [Example 170, N-(4-(3-Amino-7-(3,3-dimethylbut-1-yn-1-yl)-1H-indazol-5-yl)pyridin-2-yl)-2-cyclopropylacetamide] | 1550 nM | 26 nM

Reference: patent US20250304576A1 (Cancer Research Technology Limited, priority 2022, published 2025)
